The results in this text go back to patent publication US20240148749A1 (priority 2021, published 2024).

In the experiment the test system is CLP mice. In words: Survival after cecal ligation and puncture (CLP) model of sepsis. It is filed as in vivo, mouse. As to the method: A log-rank (Mantel-Cox) p value for trend was calculated.
We used peritonitis induced by CLP as a model of sepsis (Rittirsch et al., 2009). Briefly, animals were anesthetized with ketamine (Imalgene® 1000 100 mg/kg, Merial, France) and Xylazine (Rompun® 2% 20 mg/kg, Bayer, Germany) prior to surgery. After laparotomy, caecum was ligatured at the distal third with a 4.0 suture and the distal part was perforated twice with a 21 Gauge needle.
For use it is dissolved following the guidance provided by the manufacturer.
Clinical score was assessed 6, 12 and 24 hours and 21 days after CLP using a modified SmithKline Beecham, Harwell, Imperial College and Royal London Hospital phenotype assessment (SHIRPA) (Rogers et al., 1997) of the maximum score of fourteen. Weight, temperature and locomotor activity using an open field box were measured at the same time points. We determined survival rate twice a day for 21 days after CLP. The symptoms included in the a modified SmithKline Beecham, Harwell, Imperial College and Royal London Hospital phenotype assessment (SHIRPA) are tremors, periorbital exudates, piloerection, lethargy, vocalisation, positional passivity, no escapement to threat, long transfer arousal and diarrhoea. Each condition was scored from 0 to 2.
Experimental protocols were conducted in accordance with the French and European regulations on Animal Welfare and with Public Health Service recommendations. The experiments were performed on C57BL/6JRj mice (male and female) purchased from Janvier Laboratory. Mice were housed in cages in groups of 7, in a temperature (22±1.5° C.) and humidity-controlled environment, with a 12 h light/dark cycle. All animals used in the study were between 10 and 12 weeks old. Sample-size estimates for animal experiments were based on prior animal-modelling studies used in the Unit for the investigation of caecal ligation and puncture (CLP).
At the end, two groups were compared: CLP-Placebo, CLP-BMX-010. We determined survival rate twice a day for 4 days after CLP.”

`CC[n+]1ccccc1-c1c2nc(c(-c3cccc[n+]3CC)c3ccc([nH]3)c(-c3cccc[n+]3CC)c3nc(c(-c4cccc[n+]4CC)c4ccc1[nH]4)C=C3)C=C2.[Mn+3]` [BMX-010, manganese(III) 5,10,15,20-tetrakis(N-ethylpyridinium-2-yl) porphyrin]: for the setting “CLP experiment, FIG. 10”, the “survival of mice hours post-CLP (probability of survival over time) versus placebo” value is listed as “outperforms the placebo”. Moreover, for the setting “CLP mice, 2 mg/kg intra peritoneal every 12 hours during 48 hours (4 injections), N=12 mice C57BL6/group”, the “survival at 4 days post-CLP versus placebo” value is on record as “more that doubles survival”.
